Each structure is given as a SMILES string.

The subject of one assay is Del19/T790M/C797S EGFR. Briefly: EGFR degradation HTRF assay in H1975-clone #28 (DTC) cells. Format: cell-based. The note with it: H1975 # 28 DTC (Del19/T790M/C797S), 16h treatment; for DC50: HTRF; for Dmax (%): maximum percentage of degradation. The method, boiled down: (§1)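 Remaining EGFR protein was measured by HTRF (337 nm excitation, 665/620 nm emission) in lysates after overnight antibody incubation. Cells had been exposed for 16 h to an 8-point, 5-fold series starting at 10 uM, and DC50 values were fitted with a Hill equation.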
(In TR-FRET formats the signal depends on donor and acceptor labels being close together.)

The target in a further assay is T1, L858R/T790M/C797S EGFR (Homo sapiens, UniProt P00533, C797S/L858R/T790M).
T1 construct: expressed in transfected cells; host or cells: H1975 clone #25 (lentiviral over-expression, endogenous EGFR knocked out by sgRNA)
Briefly: EGFR degradation HTRF assay in H1975-clone #25 (LTC) cells. Format: cell-based. The conditions noted are these: 16h treatment; for DC50: H1975 # 25-LTC (L858R/T790M/C797S), HTRF; for Dmax: NCI-H1975, H1975 # 25-LTC (L858R/T790M/C797S), maximum percentage of degradation. The gist of the method:
as §1

T1 sequence (P00533 25-1210 T790M/C797S/L858R): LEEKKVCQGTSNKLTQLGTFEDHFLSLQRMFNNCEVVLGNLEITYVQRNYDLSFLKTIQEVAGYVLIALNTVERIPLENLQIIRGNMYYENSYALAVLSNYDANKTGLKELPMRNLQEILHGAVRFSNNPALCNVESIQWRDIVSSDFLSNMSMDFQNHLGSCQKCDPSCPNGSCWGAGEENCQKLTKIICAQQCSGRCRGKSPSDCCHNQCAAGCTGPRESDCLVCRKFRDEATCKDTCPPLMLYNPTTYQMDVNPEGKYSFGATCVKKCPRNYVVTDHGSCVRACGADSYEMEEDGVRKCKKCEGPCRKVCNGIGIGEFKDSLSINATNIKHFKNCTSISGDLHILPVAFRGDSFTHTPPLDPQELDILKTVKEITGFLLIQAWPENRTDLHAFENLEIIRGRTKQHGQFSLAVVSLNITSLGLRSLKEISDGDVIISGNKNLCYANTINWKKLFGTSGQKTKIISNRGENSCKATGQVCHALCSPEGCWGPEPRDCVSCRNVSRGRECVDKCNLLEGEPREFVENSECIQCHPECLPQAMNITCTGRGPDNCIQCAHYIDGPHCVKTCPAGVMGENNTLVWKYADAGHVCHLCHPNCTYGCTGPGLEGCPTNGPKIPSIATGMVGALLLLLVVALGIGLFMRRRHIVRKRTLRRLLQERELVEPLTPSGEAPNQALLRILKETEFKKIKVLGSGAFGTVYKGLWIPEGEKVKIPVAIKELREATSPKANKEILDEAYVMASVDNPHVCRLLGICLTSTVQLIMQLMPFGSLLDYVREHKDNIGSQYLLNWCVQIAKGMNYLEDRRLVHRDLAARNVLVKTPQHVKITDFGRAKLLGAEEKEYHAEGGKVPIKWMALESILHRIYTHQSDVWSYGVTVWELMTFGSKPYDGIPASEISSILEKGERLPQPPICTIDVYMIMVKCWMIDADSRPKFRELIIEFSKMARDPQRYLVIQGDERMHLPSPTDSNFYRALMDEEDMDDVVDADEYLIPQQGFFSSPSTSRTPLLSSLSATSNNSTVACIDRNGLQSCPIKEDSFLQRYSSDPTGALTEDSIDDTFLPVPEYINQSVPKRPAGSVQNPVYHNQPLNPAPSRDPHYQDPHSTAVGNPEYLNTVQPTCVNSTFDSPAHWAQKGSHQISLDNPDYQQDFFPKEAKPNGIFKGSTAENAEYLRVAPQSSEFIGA

With `Cc1cc2cc(n1)-c1cnn(C)c1OCCC[C@@H](C)CN1/C(=N/C2=O)Nc2cc(C)c(CN3CCN(CC4CN(c5cc(F)c([C@H]6CCC(=O)NC6=O)c(F)c5)C4)CC3)cc21` [Example 147, (R)-3-(2,6-difluoro-4-(3-((4-(((R,E)-1^1,2^6,5,7-tetramethyl-3-oxo-5^2,5′-dihydro-1^1H,5^1H-11-oxa-4-aza-5(2,1)-benzo[d]imidazola-2(2,4)-pyridina-(4,5)-pyrazolacycloundecaphane-5^6-yl)methyl)piperazin-1-yl)methyl)azetidin-1-yl)phenyl)piperidine-2,6-dione], in the assay with Del19/T790M/C797S EGFR, it took 2.41 nM to reach half-maximal degradation (DC50) and the “Dmax (%)” value is on record as 69.47%. Moreover, at L858R/T790M/C797S EGFR, half-maximal degradation (DC50) was put at 1.83 nM and the Dmax is 81.4%.

On to `Cc1cc2cc(n1)-c1cnn(C)c1OCCC[C@@H](C)CN1/C(=N/C2=O)Nc2ccc(N3CCN(CCCNc4cc(F)c([C@H]5CCC(=O)NC5=O)c(F)c4)CC3)cc21` [Example 400, (R)-3-(2,6-difluoro-4-((3-(4-((R,E)-1^1,2^6,7-trimethyl-3-oxo-5^2,5^3-dihydro-1^1H,5^1H-11-oxa-4-aza-5(2,1)-benzo[d]imidazola-2(2,4)-pyridina-1(4,5)-pyrazolacycloundecaphane-5^6-yl)piperazin-1-yl)propyl)amino)phenyl)piperidine-2,6-dione], for which, in the assay on Del19/T790M/C797S EGFR, half-maximal degradation (DC50) was put at 0.628 nM and the “Dmax (%)” value was 79.74%. On L858R/T790M/C797S EGFR, half-maximal degradation (DC50) was put at 0.915 nM and the Dmax worked out at 89.8%.

Regarding `COC[C@H]1CN(C(=O)[C@@H]2CCN(c3cc(F)c([C@H]4CCC(=O)NC4=O)c(F)c3)C2)CCN1Cc1ccc2c(c1)N1C[C@H](C)CCCOc3c(cnn3C)-c3cc(cc(C)n3)C(=O)/N=C/1N2` [Example 194, (R)-3-(2,6-difluoro-4-((R)-3-((R)-3-(methoxymethyl)-4-(((R,E)-1^1,2^6,7-trimethyl-3-oxo-5^2,5^3-dihydro-1^1H,5^1H-11-oxa-4-aza-5(2,1)-benzo[d]imidazola-2(2,4)-pyridina-1(4,5)-pyrazolacycloundecaphane-5′-yl)methyl)piperazine-1-carbonyl)pyrrolidin-1-yl)phenyl)piperidine-2,6-dione], in the assay on Del19/T790M/C797S EGFR, half-maximal degradation (DC50) was put at 0.836 nM and the “Dmax (%)” value is reported as 79.44%. At L858R/T790M/C797S EGFR, the DC50 was found to be 1.18 nM and the Dmax amounted to 84.4%.

Consider `CO[C@@H]1CN(CCc2cc(F)c([C@H]3CCC(=O)NC3=O)c(F)c2)CC[C@@H]1N(C)C(=O)c1ccc2c(c1)N1C[C@H](C)CCCOc3c(cnn3C)-c3cc(cc(C)n3)C(=O)/N=C/1N2` [Example 252, (R,E)-N—((3R,4S)-1-(4-((R)-2,6-dioxopiperidin-3-yl)-3,5-difluorophenethyl)-3-methoxypiperidin-4-yl)-N,1^1,2^6,7-tetramethyl-3-oxo-5^2,5^3-dihydro-1^1H,5^1H-11-oxa-4-aza-5(2,1)-benzo[d]imidazola-2(2,4) -pyridina-1(4,5)-pyrazolacycloundecaphane-5^4-carboxamide], for which, in the assay with Del19/T790M/C797S EGFR, the DC50 is 0.606 nM and the “Dmax (%)” value turned out to be 77.32%. On L858R/T790M/C797S EGFR, this compound registered a half-maximal degradation concentration (DC50) of 0.584 nM and a maximal degradation (Dmax) of 92.4%.

Consider `Cc1cc2cc(n1)-c1cnn(C)c1OCCC[C@@H](C)CN1/C(=N/C2=O)Nc2ccc(C(=O)N(C)C3CN(C4CCN(c5cc(F)c([C@H]6CCC(=O)NC6=O)c(F)c5)CC4)C3)cc21` [Example 309, (R,E)-N-(1-(1-(4-((R)-2,6-dioxopiperidin-3-yl)-3,5-difluorophenyl)piperidin-4-yl)azetidin-3-yl)-N,1′,2^6,7-tetramethyl-3-oxo-5^2,5^3-dihydro-1^1H,5^1H-11-oxa-4-aza-5(2,1)-benzo[d]imidazola-2(2,4)-pyridina-1(4,5)-pyrazolacycloundecaphane-5^6-carboxamide], for which, in the assay on Del19/T790M/C797S EGFR, the DC50 was determined as 0.684 nM and the “Dmax (%)” value is recorded as 65.2%. On L858R/T790M/C797S EGFR, this compound registered a DC50 of 0.459 nM and a Dmax of 83%.

Consider `Cc1cc2cc(n1)-c1c(C)nn(C)c1OCCC[C@@H](C)CN1/C(=N/C2=O)Nc2ccc(C(=O)N(C)C3CCN(CCc4cc(F)c([C@H]5CCC(=O)NC5=O)c(F)c4)CC3)cc21` [Example 233, (R,E)-N-(1-(4-((R)-2,6-dioxopiperidin-3-yl)-3,5-difluorophenethyl)piperidin-4-yl)-N,1^1,1^3,2^6,7-penta methyl-3-oxo-5^2,5^3-dihydro-1^1H,5^1H-11-oxa-4-aza-5(2,1)-benzo[d]imidazola-2(2,4)-pyridina-1(4,5)-pyrazolacycloundecaphane-5^6-carboxamide], for which, in the assay with Del19/T790M/C797S EGFR, the 50% degradation concentration (DC50) is 0.806 nM and the “Dmax (%)” value amounted to 86.73%. On L858R/T790M/C797S EGFR, it took 1.05 nM to reach half-maximal degradation (DC50) and the Dmax is 91.2%.

For `Cc1cc2cc(n1)-c1cnn(C)c1OCCC[C@@H](C)CN1/C(=N/C2=O)Nc2ccc(C(=O)N3CCC(N(C)CCc4cc(F)c([C@H]5CCC(=O)NC5=O)c(F)c4)CC3)cc21` [Example 299, (R)-3-(2,6-difluoro-4-(2-(methyl(1-((R,E)-1^1,2^6,7-trimethyl-3-oxo-5^2,5^3-dihydro-1^1H,5^1H-11-oxa-4-aza-5(2,1)-benzo[d]imidazola-2(2,4)-pyridina-1(4,5)-pyrazolacycloundecaphane-5^6-carbonyl)piperidin-4-yl)amino)ethyl)phenyl)piperidine-2,6-dione], in the assay on Del19/T790M/C797S EGFR, the DC50 worked out at 0.611 nM and the “Dmax (%)” value was 66.17%. On L858R/T790M/C797S EGFR, this compound registered a 50% degradation concentration (DC50) of 0.468 nM and a maximal degradation (Dmax) of 86.9%.

For the compound `Cc1cc2cc(n1)-c1cnn(C)c1OCCC[C@@H](C)CN1/C(=N/C2=O)Nc2ccc(N3CCN(C4CCN(c5cc(F)c([C@H]6CCC(=O)NC6=O)c(F)c5)CC4)[C@H](C)C3)cc21` [Example 388, (R)-3-(2,6-difluoro-4-(4-((R)-2-methyl-4-((R,E)-1^1,2^6,7-trimethyl-3-oxo-5^2,5^3-dihydro-1^1H,5^1H-11-oxa-4-aza-5(2,1)-benzo[d]imidazola-2(2,4)-pyridina-1(4,5)-pyrazolacycloundecaphane-5^6-yl)piperazin-1-yl)piperidin-yl)phenyl)piperidine-2,6-dione], in the assay with Del19/T790M/C797S EGFR, it took 0.776 nM to reach half-maximal degradation (DC50) and the “Dmax (%)” value was 80.94%. Moreover, on L858R/T790M/C797S EGFR, the DC50 was 1.11 nM and the Dmax was 86.5%.

Consider `Cc1cc2cc(n1)-c1cnn(C)c1OCCC[C@@H](C)CN1/C(=N/C2=O)Nc2ccc(N3CCN([C@H]4CCN(c5ccc([C@H]6CCC(=O)NC6=O)nc5C)C[C@@H]4F)CC3)cc21` [Example 440, (R)-3-(5-((3S,4S)-3-fluoro-4-(4-((R,L)-1^1,2^6,7-trimethyl-3-oxo-5^2,5′-dihydro-1^1H,5^1H-11-oxa-4-aza-5(2,1)-benzo[d]imidazola-2(2,4)-pyridina-1(4,5)-pyrazolacycloundecaphane-5^6-yl)piperazin-1-yl)piperidin-1-yl)-6-methylpyridin-2-yl)piperidine-2,6-dione], for which, in the assay on Del19/T790M/C797S EGFR, the half-maximal degradation concentration (DC50) amounted to 0.884 nM and the “Dmax (%)” value was found to be 85.39%. For the same compound, on L858R/T790M/C797S EGFR, the DC50 came to 0.936 nM and the Dmax is 93.5%.

Regarding `Cc1cc2cc(n1)-c1cnn(C)c1OCCC[C@@H](C)CN1/C(=N/C2=O)Nc2ccc(C(=O)N3CC[C@H](N(C)CCc4cc(F)c([C@H]5CCC(=O)NC5=O)c(F)c4)C3)cc21` [Example 297, (R)-3-(2,6-difluoro-4-(2-(methyl((S)-1-((R,E)-1^1,2^6,7-trimethyl-3-oxo-5^2,5^3-dihydro-1^1H,5^1H-11-oxa-4-aza-5(2,1)-benzo[d]imidazola-2(2,4)-pyridina-1(4,5)-pyrazolacycloundecaphane-5^6-carbonyl)pyrrolidin-3-yl)amino)ethyl)phenyl)piperidine-2,6-dione], in the assay with Del19/T790M/C797S EGFR, the 50% degradation concentration (DC50) came to 0.292 nM and the “Dmax (%)” value came to 79.64%. On L858R/T790M/C797S EGFR, this compound showed a DC50 of 0.432 nM and a Dmax of 91.7%.

For the compound `Cc1cc2cc(n1)-c1cnn(C)c1OCCC[C@@H](C)CN1/C(=N/C2=O)Nc2ccc(N3CCN(CC4CN(c5cc(F)c([C@H]6CCC(=O)NC6=O)c(F)c5)C4)[C@H](CO)C3)cc21` [Example 451, (R)-3-(2,6-difluoro-4-(3-(((S)-2-(hydroxymethyl)-4-((R,E)-1^1,2^6,7-trimethyl-3-oxo-5^2,5^3-dihydro-1^1H,5^1H-11-oxa-4-aza-5(2,1)-benzo[d]imidazola-2(2,4)-pyridina-1(4,5)-pyrazolacycloundecaphane-5^6-yl)piperazin-1-yl)methyl)azetidin-1-yl)phenyl)piperidine-2,6-dione], in the assay with Del19/T790M/C797S EGFR, it took 0.606 nM to reach half-maximal degradation (DC50) and the “Dmax (%)” value was found to be 81.53%. Further, on L858R/T790M/C797S EGFR, it took 0.881 nM to reach half-maximal degradation (DC50) and the maximal degradation (Dmax) came to 90.9%.

In the case of `Cc1cc2cc(n1)-c1cnn(C)c1OCCC[C@@H](C)CN1/C(=N/C2=O)Nc2ccc(C(=O)N(C)[C@H]3CCN(CCc4cc(F)c([C@H]5CCC(=O)NC5=O)c(F)c4)CC3(F)F)cc21` [Example 251, (R,E)-N—((S)-1-(4-((R)-2,6-dioxopiperidin-3-yl)-3,5-difluorophenethyl)-3,3-difluoropiperidin-4-yl)-N,1^1,2^6,7-tetramethyl-3-oxo-5^2,5^3-dihydro-1^1H,5^1H-11-oxa-4-aza-5(2,1)-benzo[d]imidazola-2(2,4)-pyridina-1(4,5)-pyrazolacycloundecaphane-5^6-carboxamide], in the assay with Del19/T790M/C797S EGFR, the half-maximal degradation concentration (DC50) stood at 0.611 nM and the “Dmax (%)” value worked out at 80.86%. At L858R/T790M/C797S EGFR, this compound had a DC50 of 0.888 nM and a maximal degradation (Dmax) of 85.5%.

The term DC50 denotes the concentration giving 50% degradation. The Dmax is the largest share of the target that was removed. Read a high Dmax as deep degradation.

These data come from patent US20240342292A1, “Compounds for the Degradation of EGFR Kinase” (BeiGene Switzerland GmbH, priority 2021, published 2024).
